The test system of test [1] is O-glycosylation of human anti-Her2 antibody in Pichia pastoris strain yGLY4280 (Pmt-mediated). The test can be described thus: O-glycan occupancy of secreted anti-Her2 antibody (Dionex HPAEC-PAD) from shake-flask cultures treated with Pmt inhibitor. The class given is cell-based. The following applies: inhibitor 0.15 ug/mL added at induction; 24 hr in induction media; protein A purified anti-Her2; no inhibitor >14.0. On the procedure:
Anti-Her2 protein expression for strain yGLY4280 was carried out in shake flasks at 24° C. with buffered glycerol-complex medium (BMGY) consisting of 1% yeast extract, 2% peptone, 100 mM potassium phosphate buffer pH 6.0, 1.34% yeast nitrogen base, 4×10-5% biotin, and 1% glycerol. The induction medium for protein expression was buffered methanol-complex medium (BMMY) consisting of 1% methanol instead of glycerol in BMGY. Pmt inhibitors in 100% methanol were added to the growth medium to a final concentration of 0.15 ug/mL at the time the induction medium was added. This is an intermediate dose that is sufficient to reduce O-glycosylation to roughly 50% of that observed without Pmt inhibitor treatment, and thus allows a comparison of potency for the different inhibitors. Following 24 hr further growth in the induction media, cultures were harvested and centrifuged at 2,000 rpm for five minutes to remove cells from the supernatant.
O-glycan determination was performed using a Dionex-HPLC(HPAEC-PAD) as follows. To measure O-glycosylation reduction, protein was purified from the growth medium using protein A chromatography (Li et al. Nat. Biotechnol. 24(2):210-5 (2006)) and the O-glycans released from and separated from protein by alkaline elimination (beta-elimination) (Harvey, Mass Spectrometry Reviews 18: 349-451 (1999)). This process also reduces the newly formed reducing terminus of the released O-glycan (either oligomannose or mannose) to mannitol. The mannitol group thus serves as a unique indicator of each O— glycan. 0.5 nmole or more of protein, contained within a volume of 100 μL PBS buffer, was required for beta elimination. The sample was treated with 25 μL alkaline borohydride reagent and incubated at 50° C. for 16 hours. About 20 uL arabitol internal standard was added, followed by 10 μL glacial acetic acid. The sample was then centrifuged through a Millipore filter containing both SEPABEADS and AG 50W-X8 resin and washed with water. The samples, including wash, were transferred to plastic autosampler vials and evaporated to dryness in a centrifugal evaporator. 150 μL 1% AcOH/MeOH was added to the samples and the samples evaporated to dryness in a centrifugal evaporator. This last step was repeated five more times. 200 μL of water was added and 100 μL of the sample was analyzed by high pH anion-exchange chromatography coupled with pulsed electrochemical detection-Dionex HPLC(HPAEC-PAD). Average O-glycan occupancy was determined based upon the amount of mannitol recovered.

For test [2], the system named is O-glycosylation of anti-Her2 heavy chain (Hc) in Pichia pastoris strain yGLY4280. Description: Western blot of anti-Her2 heavy chain O-glycosylation with 2-fold dilutions of Pmt inhibitor in 96-well plates (FIG. 1). It is filed as cell-based. To be noted: 2-fold dilutions 5 to 0.009 ug/mL, 24 hours; for concentration as low as which O-glycosylation of anti-Her2 Hc was effectively reduced: Western blot. An excerpt:
FIG. 1 illustrates the effect of Pmt inhibitors including the novel inhibitor shown as Example 4 on O-glycosylation of secreted recombinant monoclonal antibody in Pichia pastoris. […] Western blotting using an anti-human H+L antibody was used to detect heavy (Hc) and light (Lc) chains in the growth media of strains treated with increasing amounts of Pmt inhibitor (higher doses in left lanes). The slowest migrating band (marked with asterisk) indicates the O-glycosylated Hc which is eliminated by Pmt inhibitor treatment. […] Strain yGLY4280 was inoculated into 96-well deep well plates (Qiagen, Valencia, Calif.) containing 0.5 ml of BMGY media per well. After 24 hours growth with vigorous shaking, the 96-well plate was centrifuged at 2,000 rpm for five minutes to pellet cells. The media was removed and, following a wash step with 0.5 mL of BMMY media, the cells resuspended in 0.2 mL BMMY media in which Pmt inhibitors were diluted 2-fold across the rows (11 wells). Well #1 contained 5 ug/mL of inhibitor, well #2 contained 2.5 ug/mL and so on until well #10 contained 0.009 ug/mL; well #11 contained no inhibitor. After an additional 24 hours growth with vigorous shaking, the plate was centrifuged at 2,000 rpm for five minutes to pellet cells, and the cleared supernatant subjected to Western blot analysis to detect anti-Her2 expression. The Western blotting was performed as follows: seven μL of the supernatants were separated by reducing polyacrylamide gel electrophoresis (SDS-PAGE) according to Laemmli, U. K. (1970) Nature 227, 680-685 and then electroblotted onto nitrocellulose membranes (Schleicher & Schuell, now Whatman, Inc., Florham Park, N.J.). Anti-Her2 antibody chains were detected on the Western blots using a peroxidase-conjugated anti-human Hc and Lc antibody (Calbiochem/EMD Biosciences, La Jolla, Calif.) and developed using the ImmunoPure Metal Enhanced DAB Substrate Kit (Pierce Biotechnology, Rockford, Ill.).

Take `COCC(COC)(Oc1cc(/C=C2/SC(=S)N(CC(=O)O)C2=O)ccc1OCCc1ccc(F)cc1)c1ccccc1` [Example 1]: in test [1], the “O-glycan occupancy (moles O-mannose/moles Ab)” value was found to be 4.1 moles O-mannose/moles Ab. Still for that read-out and setting: as for `O=C(O)CN1C(=O)/C(=C/c2ccc(OCCc3ccc(F)cc3)c(OC(c3ccccc3)c3ccccc3)c2)SC1=S` [Example 2], the figure is 4.3 moles O-mannose/moles Ab; as for `O=C(O)CN1C(=O)/C(=C/c2ccc(OCCc3ccc(F)cc3)c(OC(c3ccccc3)C3CCCCC3)c2)SC1=S` (centres unmarked) [Example 3], 5.5 moles O-mannose/moles Ab. Turning to `CC(C)COCC(Oc1cc(/C=C2\SC(=S)N(CC(=O)O)C2=O)ccc1OCCc1ccc(F)cc1)c1ccccc1` (centres unmarked) [Example 4], the “effect on O-glycosylation of anti-Her2 Hc (Western blot, in words)” value in test [2] (FIG. 1) is “reduced O-glycosylation in a dose-dependent fashion”. In addition, in test [2], the “concentration as low as which O-glycosylation of anti-Her2 Hc was effectively reduced” value turned out to be 0.018 µg/mL. Further, the “O-glycan occupancy (moles O-mannose/moles Ab)” value in test [1] amounted to 5.2 moles O-mannose/moles Ab. As to `O=C(O)CN1C(=O)/C(=C/c2ccc(OCCc3ccccc3)c(OC(CO)c3ccccc3)c2)SC1=S` (centres unmarked) [Pmti-3, reference compound], in test [2], the “concentration as low as which O-glycosylation of anti-Her2 Hc was effectively reduced” value stood at 0.018 µg/mL. In addition, in test [1], the “O-glycan occupancy (moles O-mannose/moles Ab)” value is recorded as 8.1 moles O-mannose/moles Ab.
